Assay results reported in ChEMBL document CHEMBL1201862, “PubChem BioAssay data set” (2004).
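Where inhibition never reached the appropriate level, the endpoint shown equals the highest concentration tested. Otherwise, values were interpolated linearly from a five-concentration, 48-hour dose response in 96-well plates. GI50 = concentration required for 50% inhibition of growth.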 Active and inactive are the calls of the source. Rule as the data show it: active = GI50 up to about 1.1 µM and inactive = higher.

Assays:
Experiment in all cases: DTP human tumour cell line panel, 48 h
[1] = test system: HOP-92
[2] = test system: SNB-19
[3] = test system: CAKI-1
[4] = test system: SF-268
[5] = test system: NCI-H460
[6] = test system: K562
[7] = test system: MDA-MB-435
[8] = test system: DU-145
[9] = test system: NCI/ADR-RES
[10] = test system: TK-10
[11] = test system: UO-31
[12] = test system: SN12C
[13] = test system: OVCAR-8
[14] = test system: Malme-3M
[15] = test system: BT-549
[16] = test system: HOP-62
[17] = test system: M14
[18] = test system: MOLT-4
[19] = test system: A498
[20] = test system: HCC 2998
[21] = test system: UACC-62
[22] = test system: IGROV-1
[23] = test system: NCI-H226
[24] = test system: RXF 393
[25] = test system: OVCAR-3
[26] = test system: RPMI-8226
[27] = test system: SNB-75
[28] = test system: A549
[29] = test system: KM12
[30] = test system: NCI-H23
[31] = test system: EKVX
[32] = test system: SK-OV-3
[33] = test system: SF-539
[34] = test system: MCF7
[35] = test system: 786-0
[36] = test system: T47D
[37] = test system: HCT-15
[38] = test system: LOX IMVI
[39] = test system: HT-29
[40] = test system: PC-3
[41] = test system: COLO 205
[42] = test system: MDA-MB-231
[43] = test system: NCI-H522
[44] = test system: SK-MEL-28
[45] = test system: MDA-N
[46] = test system: U-251
[47] = test system: Hs-578T
[48] = test system: CCRF-CEM
[49] = test system: SW-620
[50] = test system: SR
[51] = test system: SK-MEL-2
[52] = test system: OVCAR-4
[53] = test system: SK-MEL-5
[54] = test system: UACC-257
[55] = test system: HL-60
[56] = test system: HCT-116
[57] = test system: ACHN
[58] = test system: SF-295
[59] = test system: OVCAR-5

CCOP(=O)(OCC)C(Nc1cccc(F)c1)c1ccccc1 (stereo unspecified)
GI50 [1]: 32.7 µM (inactive)
GI50 [2]: > 100 µM (inactive)
GI50 [3]: > 100 µM (inactive)
GI50 [4]: 59 µM (inactive)
GI50 [5]: 43.9 µM (inactive)
GI50 [6]: 34.8 µM (inactive)
GI50 [7]: 78.9 µM (inactive)
GI50 [8]: > 100 µM (inactive)
GI50 [9]: 34.5 µM (inactive)
GI50 [10]: > 100 µM (inactive)
GI50 [11]: 44.8 µM (inactive)
GI50 [12]: 75.9 µM (inactive)
GI50 [13]: 62.2 µM (inactive)
GI50 [14]: 50.7 µM (inactive)
GI50 [15]: > 100 µM (inactive)
GI50 [16]: > 100 µM (inactive)
GI50 [17]: 69.5 µM (inactive)
GI50 [18]: 30 µM (inactive)
GI50 [19]: > 100 µM (inactive)
GI50 [20]: 66.1 µM (inactive)
GI50 [21]: 63 µM (inactive)
GI50 [22]: > 100 µM (inactive)
GI50 [23]: 93.5 µM (inactive)
GI50 [24]: 25.2 µM (inactive)
GI50 [25]: 60.5 µM (inactive)
GI50 [26]: 29.7 µM (inactive)
GI50 [27]: 20.7 µM (inactive)
GI50 [28]: 43.9 µM (inactive)
GI50 [29]: 67 µM (inactive)
GI50 [30]: > 100 µM (inactive)
GI50 [31]: 40.5 µM (inactive)
GI50 [32]: > 100 µM (inactive)
GI50 [33]: > 100 µM (inactive)
GI50 [34]: 76.6 µM (inactive)
GI50 [35]: > 100 µM (inactive)
GI50 [36]: 22.7 µM (inactive)
GI50 [37]: 44.4 µM
GI50 [38]: 75.7 µM (inactive)
GI50 [39]: 58.1 µM (inactive)
GI50 [40]: 50.2 µM (inactive)
GI50 [41]: 34.4 µM (inactive)
GI50 [42]: 75.5 µM (inactive)
GI50 [43]: 36.1 µM (inactive)
GI50 [44]: > 100 µM (inactive)
GI50 [45]: > 100 µM (inactive)
GI50 [46]: 74.1 µM (inactive)
GI50 [47]: 35.9 µM (inactive)
GI50 [48]: 47.1 µM (inactive)
GI50 [49]: > 10 µM (inactive)
GI50 [50]: 38.9 µM (inactive)
GI50 [51]: 47.9 µM (inactive)
GI50 [52]: 59.3 µM (inactive)
GI50 [53]: 42.2 µM (inactive)
GI50 [54]: 45.1 µM (inactive)
GI50 [55]: 18.1 µM (inactive)
GI50 [56]: 44.1 µM (inactive)
GI50 [57]: 58.7 µM (inactive)
GI50 [58]: 54.7 µM (inactive)

C[N+]1(CCC[N+]2(C)CC3C4C=CC(CC4)C3C2)CCOCC1 (stereo unspecified)
GI50 [1]: > 100 µM (inactive)
GI50 [2]: > 100 µM (inactive)
GI50 [3]: > 100 µM (inactive)
GI50 [4]: > 100 µM (inactive)
GI50 [6]: > 100 µM (inactive)
GI50 [7]: > 100 µM (inactive)
GI50 [8]: > 100 µM (inactive)
GI50 [9]: > 100 µM (inactive)
GI50 [10]: > 100 µM (inactive)
GI50 [11]: > 100 µM (inactive)
GI50 [12]: > 100 µM (inactive)
GI50 [13]: > 100 µM (inactive)
GI50 [14]: > 100 µM (inactive)
GI50 [15]: > 100 µM (inactive)
GI50 [16]: > 100 µM (inactive)
GI50 [59]: > 100 µM (inactive)
GI50 [17]: > 100 µM (inactive)
GI50 [18]: > 100 µM (inactive)
GI50 [19]: > 100 µM (inactive)
GI50 [20]: 86.7 µM (inactive)
GI50 [21]: > 100 µM (inactive)
GI50 [22]: > 100 µM (inactive)
GI50 [23]: > 100 µM (inactive)
GI50 [24]: > 100 µM (inactive)
GI50 [25]: > 100 µM (inactive)
GI50 [26]: > 100 µM (inactive)
GI50 [27]: > 100 µM (inactive)
GI50 [28]: > 100 µM (inactive)
GI50 [29]: > 100 µM (inactive)
GI50 [30]: > 100 µM (inactive)
GI50 [31]: > 100 µM (inactive)
GI50 [32]: > 100 µM (inactive)
GI50 [33]: > 100 µM (inactive)
GI50 [34]: > 100 µM (inactive)
GI50 [35]: > 100 µM (inactive)
GI50 [36]: > 100 µM (inactive)
GI50 [37]: > 100 µM
GI50 [38]: > 100 µM (inactive)
GI50 [39]: > 100 µM (inactive)
GI50 [40]: > 100 µM (inactive)
GI50 [41]: > 100 µM (inactive)
GI50 [42]: > 100 µM (inactive)
GI50 [43]: > 100 µM (inactive)
GI50 [44]: > 100 µM (inactive)
GI50 [45]: > 100 µM (inactive)
GI50 [46]: > 100 µM (inactive)
GI50 [47]: > 100 µM (inactive)
GI50 [48]: > 100 µM (inactive)
GI50 [49]: > 100 µM (inactive)
GI50 [50]: > 100 µM (inactive)
GI50 [51]: > 100 µM (inactive)
GI50 [52]: > 100 µM (inactive)
GI50 [53]: 18.5 µM (inactive)
GI50 [54]: > 100 µM (inactive)
GI50 [55]: > 100 µM (inactive)
GI50 [56]: > 100 µM (inactive)
GI50 [57]: > 100 µM (inactive)
GI50 [58]: > 100 µM (inactive)
